Data on 7 molecules can be found in patent US9428483B2, “Prodrug of fluorine-containing amino acid” (TAISHO PHARMACEUTICAL CO., LTD., priority 2012, dated 2016).

Bounds are passed on as bounds.

One series deals with schizophrenia model rat. To be noted: cited from earlier work.
The next series addresses mGluR3 (Homo sapiens, UniProt Q14832). The conditions noted are these: read-out: EC50 value for the agonistic activity for mGluR3; cited from earlier work.
Series [1] has as its system phencyclidine-elicited head-weaving behavior. To be noted: schizophrenia model; cited from earlier work.
For series [2], the system named is conditioned avoidance response. To be noted: schizophrenia model; cited from earlier work.
A short description of series [3]: Test 5: plasma concentrations of Compound (IV) in monkey after oral administration. In kind it is in vivo, cynomolgus monkeys. The method, then: A test to measure the plasma concentration of Compound (IV) upon oral administration of Compound (IV) and Inventive Compounds (I) was conducted in accordance with the following method.
Compound (IV) or Inventive Compounds (I) was orally administered to male cynomolgus monkeys (fed condition) at a dose of 4.92 μmol/kg (vehicle: 0.5% methyl cellulose (MC) solution; administered at a dose of 5 mL/kg).
Two and 4 hours after the oral administration, approximately 0.7 mL of blood was taken from the cephalic vein (anticoagulant: EDTA-2K). The plasma recovered by centrifugation (3000 rpm, 4° C.×10 min) was stored frozen at −80° C. until use for analysis. In the case of analysis, 50 μL of the plasma sample was thawed under cooling with ice and after adding 200 μL of a liquid acetonitrile/methanol mixture containing an internal standard substance, the resulting mixture was stirred and centrifuged (4° C.×10 min); the resulting supernatant was subjected to LC-MS/MS analysis. The lower quantitation limits of Inventive Compounds (I) and Compound (IV) were 1 ng/mL and 3 ng/mL, respectively.

A short description of series [4]: Test 1: Solution Stability Test. Format: physicochemical. The conditions noted are these: 37° C., one hour, about 50 μg/mL; for Compound's percent residue (%) pH 6.5: 20 mM phosphate buffer (pH 6.5); for Compound's percent residue (%) pH 1.2: hydrochloric acid solution (pH 1.2). The method, then:
Inventive Compounds (I) were tested for their stability in solutions simulating the gastric and small intestine's digestive fluids identified below.
The percent residues of Inventive Compounds (I) in a hydrochloric acid solution (pH 1.2) and 20 mM phosphate buffer (pH 6.5) were measured in accordance with the following test method.
A test compound was dissolved in a hydrochloric acid solution (pH 1.2) containing hydrochloric acid and sodium chloride or a 20 mM phosphate buffer (pH 6.5) containing disodium hydrogenphosphate, sodium dihydrogenphosphate and sodium chloride to prepare a solution with a concentration of about 50 μg/mL (near the solubility if undissolved). The solution was incubated at 37° C. for an hour and the compound's concentration before and after the incubation was quantified by high-performance liquid chromatography to calculate the percent residue of the compound.

The nature of series [5]: Test 4: percent generation of Compound (IV) in human small intestine S9. To be noted: 3 μM, 1 mg protein/mL, 37° C. x 1 hr. Format: in vitro ADME. The procedure:
A test to determine the percent generation of Compound (IV) in human intestine S9 was conducted for Inventive Compounds (I) in accordance with the following method.
Inventive Compounds were incubated (37° C.×1 hr) in a 0.1 M phosphate buffer (pH 7.4) together with a human intestine S9 fraction (Xenotech, LLC/CP710571/Lot, 710571) in the presence of Mg^2+ (5 mM), Ca^2+ (5 mM) and Zn^2+ (0.1 mM). The final concentrations of each Inventive Compound and the small intestine S9 protein were adjusted to 3 μM and 1 mg protein/mL, respectively. To the incubated reaction mixture, 3 volumes of DMSO was added, followed by stirring and centrifugation at 3000 rpm (4° C.×10 min). The resulting supernatant was subjected to analysis by a liquid chromatography-tandem mass spectrometry (LC-MS/MS) system. The lower quantitation limit was 0.3 μM for both Inventive Compounds (I) and Compound (IV).
The LC-MS/MS system used in the measurement was equipped with Waters XBridge Amide (3.5 μm, 50 mm×4.6 mm I.D.), Waters Atlantis T3 (3 μm, 50 mm×4.6 mm I.D.), or Shimadzu Shim-pack XR-ODS (2.2 μm, 30 mm×3.0 mm I.D.) as a separation column. The mobile phase was a 0.1% formic acid/acetonitrile solution or a 0.1% formic acid/methanol solution (flow rate: 0.7-1.3 mL/min) and the analyte was eluted in a linear gradient mode. MS/MS detection of Inventive Compounds (I) and Compound (IV) was performed using an API4000 or Triple quad 5500 system with TurbolonSpray interface (both being products of AB SCIEX) in either a positive or negative ion detection mode. The percent generation of Compound (IV) in human small intestine S9 is shown in the following Table 6 with respect to Inventive Compounds.

Series [6] in a line: Test 2: generation of Compound (IV) in human hepatic microsomes. To be noted: human hepatic microsome. In kind it is in vitro ADME. The method, then: A test to determine the percent generation of Compound (IV) in human and monkey hepatic microsomes was conducted for Inventive Compounds (I) in accordance with the following method. As a control for comparison, an ethyl ester form of Compound (IV) (Reference Example 1) was used.
A test compound was incubated (37° C.×15 min) in a 0.250 M phosphate buffer (pH 7.4) containing 69 mM KCl, together with a human hepatic microsome (Ms) fraction (Xenotech/H630B/lot, 0810472) or a monkey Ms fraction (BD Biosciences/452413/lot, 94518) in the presence of a NADPH generation system (0.16 mM NADP^+, 2.4 mM MgCl2, 1.5 mM glucose-6-phosphate). The final concentrations of the test compound and hepatic Ms protein were adjusted to 3 μM and 1 mg protein/mL, respectively. To the incubated reaction mixture, 2 volumes of DMSO was added, followed by stirring and centrifugation at 3000 rpm (4° C.×10 min) The resulting supernatant was subjected to analysis by a liquid chromatography-tandem mass spectrometry (LC-MS/MS) system. The lower quantitation limit was 0.3 μM for both the test compound and Compound (IV).

Chain of mGluR3 (Q14832 23-879): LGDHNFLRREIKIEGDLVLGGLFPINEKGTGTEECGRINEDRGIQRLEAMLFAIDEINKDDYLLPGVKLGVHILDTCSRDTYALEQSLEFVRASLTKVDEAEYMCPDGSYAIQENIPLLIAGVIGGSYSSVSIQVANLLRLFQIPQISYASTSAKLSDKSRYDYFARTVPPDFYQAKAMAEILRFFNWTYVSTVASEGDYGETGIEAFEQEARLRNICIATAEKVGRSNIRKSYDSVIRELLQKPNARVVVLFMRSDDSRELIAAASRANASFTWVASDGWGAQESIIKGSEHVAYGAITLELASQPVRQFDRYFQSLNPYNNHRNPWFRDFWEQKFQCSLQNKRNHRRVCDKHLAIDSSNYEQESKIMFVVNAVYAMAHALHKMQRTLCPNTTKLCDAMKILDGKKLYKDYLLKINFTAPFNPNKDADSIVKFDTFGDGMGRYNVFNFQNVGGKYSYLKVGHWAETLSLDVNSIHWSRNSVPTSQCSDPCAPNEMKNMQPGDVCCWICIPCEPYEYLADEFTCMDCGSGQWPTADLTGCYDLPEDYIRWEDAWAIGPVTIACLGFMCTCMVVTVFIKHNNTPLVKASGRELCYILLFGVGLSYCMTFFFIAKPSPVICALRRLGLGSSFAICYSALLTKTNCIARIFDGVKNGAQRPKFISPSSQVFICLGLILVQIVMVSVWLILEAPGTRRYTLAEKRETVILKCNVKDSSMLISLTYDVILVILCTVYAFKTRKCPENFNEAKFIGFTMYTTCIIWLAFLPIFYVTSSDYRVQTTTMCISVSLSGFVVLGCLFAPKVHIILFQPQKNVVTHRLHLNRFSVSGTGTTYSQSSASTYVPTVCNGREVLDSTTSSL

The EC50 is the concentration needed to bring the measured effect to its halfway point. In the case of `N[C@]1(C(=O)O)[C@H]2[C@@H](C[C@@H]1F)[C@@H]2C(=O)O` [Compound IV, (1S,2S,3S,5R,6S)-2-amino-3-fluorobicyclo[3.1.0]hexane-2,6-dicarboxylic acid], in the series on schizophrenia model rat, the “ED50 value, suppressing phencyclidine-elicited hyperactivity” value is reported as 5.1 mg/kg. On mGluR3, the EC50 was 45.4 nM. In series [1], the “effect on phencyclidine-elicited head-weaving behavior” value was “has the effect of suppressing”. The “effect on conditioned avoidance response” value in series [2] is “has the effect of suppressing”. In addition, in [3] (in monkeys), the oral absorbability result is “poor”.
Turning to `C[C@H](N)C(=O)N[C@]1(C(=O)O)[C@H]2[C@@H](C[C@@H]1F)[C@@H]2C(=O)O.Cl` [Ex. D-2, (1S,2S,3S,5R,6S)-2-((S)-2-aminopropanamide)-3-fluorobicyclo[3.1.0]hexane-2,6-dicarboxylic acid hydrochloride], in series [4], the “Compound's percent residue (%) pH 6.5” value turned out to be 103% and the “Compound's percent residue (%) pH 1.2” value is on record as 100%. The “Percent generation (%) of Compound IV in human small intestine S9” value (“Percent generation (%) of Compound IV” for short) in series [5] was 17.8%.
What is called melting point is the temperature, or range, at which the solid turns liquid. Turning to `C[C@H](OC(=O)[C@H]1[C@@H]2C[C@H](F)[C@@](N)(C(=O)O)[C@@H]21)OC(=O)C12CC3CC(CC(C3)C1)C2.Cl`, the melting point is 164 °C (dec.).
Take `CSCC[C@H](N)C(=O)N[C@]1(C(=O)O)[C@H]2[C@@H](C[C@@H]1F)[C@@H]2C(=O)O.Cl` [Ex. D-1, (1S,2S,3S,5R,6S)-2-((S)-2-amino-4-(methylthio)butanamide)-3-fluorobicyclo[3.1.0]hexane-2,6-dicarboxylic acid hydrochloride]: in series [4], the “Compound's percent residue (%) pH 6.5” value was found to be 102% and the “Compound's percent residue (%) pH 1.2” value was determined as 103%. For the same molecule, in series [5], the “Percent generation (%) of Compound IV” value is 20.9%. For the same molecule, the “Concentration (ng/mL) of Compound IV in monkey plasma, After 2 hr” value in [3] (oral 4.92 μmol/kg, male cynomolgus monkeys (fed), 2 hr) came out at 141 ng/mL. In addition, in series [3] (oral 4.92 μmol/kg, male cynomolgus monkeys (fed), 4 hr), the “Concentration (ng/mL) of Compound IV in monkey plasma, After 4 hr” value is given as 128 ng/mL.
In the case of `CCOC(=O)[C@H]1[C@@H]2C[C@H](F)[C@@](N)(C(=O)O)[C@@H]21` [Ref. Ex. 1, (1S,2S,3S,5R,6S)-2-amino-6-(ethoxycarbonyl)-3-fluorobicyclo[3.1.0]hexane-2-carboxylic acid], the “test compound remaining unchanged” value in series [6] is on record as “approximately 100%”.
`CCC[C@H](N)C(=O)N[C@]1(C(=O)O)[C@H]2[C@@H](C[C@@H]1F)[C@@H]2C(=O)O.Cl` [Ex. D-4, (1S,2S,3S,5R,6S)-2-((S)-2-amino-4-methylbutanamide)-3-fluorobicyclo[3.1.0]hexane-2,6-dicarboxylic acid hydrochloride]: in series [4], the “Compound's percent residue (%) pH 6.5” value is recorded as 100% and the “Compound's percent residue (%) pH 1.2” value was found to be 101%. Moreover, the “Percent generation (%) of Compound IV” value in series [5] is less than 10%.
For `CC[C@H](C)[C@H](N)C(=O)N[C@]1(C(=O)O)[C@H]2[C@@H](C[C@@H]1F)[C@@H]2C(=O)O.Cl` [Ex. D-6, (1S,2S,3S,5R,6S)-2-((2S,3S)-2-amino-3-methylpentanamide)-3-fluorobicyclo[3.1.0]hexane-2,6-dicarboxylic acid hydrochloride], in series [4], the “Compound's percent residue (%) pH 6.5” value came to 101% and the “Compound's percent residue (%) pH 1.2” value was 101%. Moreover, the “Percent generation (%) of Compound IV” value in series [5] is reported as less than 10%.
